Data taken from PubChem BioAssay (NCI).
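Exposure lasted 48 hours, with cells grown in 96-well plates and compounds tested at five concentrations. TGI: concentration producing complete growth inhibition.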 Where a SMILES comes first, the peptide text is derived from it. The star is where a group is joined. OBn = c1ccc(CO*)cc1

Legend:
Assay in all cases: DTP human tumour cell line panel, 48 h
HL-60(TB) leukemia = tested on: HL-60(TB) leukemia
HOP-62 NSCLC = tested on: HOP-62 NSCLC
HOP-92 NSCLC = tested on: HOP-92 NSCLC
MDA-N = tested on: MDA-N
PC-3 prostate = tested on: PC-3 prostate
SN12C renal = tested on: SN12C renal
SW-620 colon = tested on: SW-620 colon
TK-10 renal = tested on: TK-10 renal
UACC-62 melanoma = tested on: UACC-62 melanoma
SK-MEL-2 melanoma = tested on: SK-MEL-2 melanoma

SMILES	TGI (HL-60(TB) leukemia)	TGI (HOP-62 NSCLC)	TGI (HOP-92 NSCLC)	TGI (MDA-N)	TGI (PC-3 prostate)	TGI (SN12C renal)	TGI (SW-620 colon)	TGI (TK-10 renal)	TGI (UACC-62 melanoma)	TGI (SK-MEL-2 melanoma)
NC(CCC(=O)OCc1ccccc1)C(=O)NC(CCC(=O)OCc1ccccc1)C(=O)O (configuration not stated) (H-Glu(OBn)-Glu(OBn)-OH; configuration not given here)	> 100 µM	> 100 µM	> 100 µM	> 100 µM	> 100 µM	> 100 µM	> 100 µM	> 100 µM	> 100 µM	
C[C@@H]1OC2(O)[C@@H]3CCCN3C(=O)N(Cc3ccccc3)N2C1=O (some centres not stated)	> 100 µM	> 100 µM	> 100 µM	> 100 µM	> 100 µM	> 100 µM	> 100 µM	> 100 µM	> 100 µM	> 100 µM
COc1ccc(C(=O)N2CCN(c3ccc4[nH]c(=O)oc4c3)CC2)cc1	> 100 µM	> 100 µM	> 100 µM	> 100 µM	> 100 µM	> 100 µM	> 100 µM	> 100 µM	> 100 µM	> 100 µM
CO[C@H](c1ccccc1)[C@H](O)[C@](O)(c1ccccc1)P(=O)(OC)OC	> 100 µM		> 100 µM	> 100 µM	> 100 µM	> 100 µM	> 100 µM	> 100 µM	> 100 µM	> 100 µM
COC(=O)C(Cc1c[nH]c2ccccc12)NP(=O)(O)OCC1OC(n2cc(F)c(=O)[nH]c2=O)CC1O (configuration not stated)	> 100 µM	> 100 µM	> 100 µM	> 100 µM	> 100 µM	> 100 µM	> 100 µM	> 100 µM	> 100 µM	> 100 µM
O=C(NN1C(=O)c2ccccc2C1=O)c1ccccc1Nc1ccccc1C(=O)NN1C(=O)c2ccccc2C1=O	> 100 µM	> 100 µM	> 100 µM	> 100 µM	> 100 µM	> 100 µM	> 100 µM	> 100 µM	> 100 µM	> 100 µM
COC(=O)c1c(C(=O)OC)c(C(c2ccccc2)c2ccccc2)n(-c2ccccc2)c1Cl	> 10 µM	> 10 µM	> 10 µM	> 10 µM	> 10 µM	> 10 µM	> 10 µM	> 10 µM	> 10 µM	
O=C(CCCN1CC=C(n2c(=O)[nH]c3ccccc32)CC1)c1cccs1	> 100 µM	> 100 µM	> 100 µM	> 100 µM	> 100 µM	> 100 µM	> 100 µM	> 100 µM	> 100 µM	> 100 µM
COc1c(O)cc2c(c1O)C1O[C@H](CO)C(O)[C@H](O)[C@H]1OC2=O (some centres not stated)	> 100 µM	> 100 µM	> 100 µM	> 100 µM	> 100 µM	> 100 µM	> 100 µM	> 100 µM		> 100 µM
CC(CCC(=O)O)[C@H]1CCC2[C@H]3C(CC(=O)[C@@]21C)[C@@]1(C)CCC(O)C[C@H]1C[C@@H]3O (some centres not stated)	> 100 µM	> 100 µM	> 100 µM	> 100 µM	> 100 µM	> 100 µM	> 100 µM		> 100 µM	> 100 µM
COc1ccccc1CNCc1nc2ccccc2[nH]1	> 100 µM	> 100 µM	> 100 µM	> 100 µM	> 100 µM	> 100 µM	> 100 µM	> 100 µM	> 100 µM	> 100 µM
O=C(Nc1ccccc1)C(=O)C(C(=O)c1ccccc1)C(c1ccccc1)c1ccccc1 (configuration not stated)	> 10 µM	> 10 µM	> 10 µM	> 10 µM	> 10 µM	> 10 µM	> 10 µM	> 10 µM	> 10 µM	
N#CC(C#N)=C1CCCCc2ccc([N+](=O)[O-])cc21	> 100 µM	> 100 µM	> 100 µM	> 100 µM	> 100 µM	> 100 µM	> 100 µM	> 100 µM	> 100 µM	> 100 µM
Cc1ccc(S(=O)(=O)n2cnc(CC(NC(=O)C3CCC(=O)N3C(=O)OCc3ccccc3)C(=O)N3CCCC3C(=O)NN)c2)cc1 (configuration not stated)	> 100 µM	> 100 µM	> 100 µM	> 100 µM	> 100 µM	> 100 µM	> 100 µM	> 100 µM		> 100 µM
Cc1n[nH]c(=O)n1/N=C/c1cccnc1	> 100 µM	> 100 µM	> 100 µM	> 100 µM	> 100 µM	> 100 µM	> 100 µM	> 100 µM	> 100 µM	> 100 µM
O=C(O)CCSc1nnc(COc2ccc(Cl)cc2)n1-c1ccccc1	> 100 µM	> 100 µM	> 100 µM	> 100 µM	> 100 µM	> 100 µM	> 100 µM	> 100 µM	> 100 µM	> 100 µM
C/C(=C/CNc1ncnc2c1ncn2CCC#N)CO	> 100 µM	> 100 µM	> 100 µM	> 100 µM	> 100 µM	> 100 µM	> 100 µM	> 100 µM	> 100 µM	
C=CC1(c2ccc(Br)cc2)OCCCO1	> 100 µM	> 100 µM	> 100 µM	> 100 µM	> 100 µM	> 100 µM	> 100 µM	> 100 µM	> 100 µM	> 100 µM
CC(=C(C(=O)O)C(=O)O)c1cc(-c2cccs2)cc(-c2ccc(Cl)cc2)c1O	46.6 µM	60.4 µM	34.3 µM	31.4 µM	28.3 µM	30.5 µM	43.6 µM	31.9 µM	35.7 µM	> 88.6 µM
O=C1OC2(c3ccc(O)cc3Oc3cc(O)ccc32)c2c1c(-c1ccccc1)c(-c1ccccc1)c(-c1ccccc1)c2-c1ccccc1	39.4 µM	67.8 µM	36.8 µM	44.9 µM	32.7 µM	60.3 µM	52 µM	59.6 µM	32.9 µM	36.3 µM
COc1ccc(NC(C)=O)cc1N1C(=O)/C(=C\c2cc(OC)c(OC)c(OC)c2)S(=O)(=O)C1c1ccccc1 (configuration not stated)	43 µM	> 100 µM	> 100 µM	> 100 µM	> 100 µM	> 100 µM	> 100 µM	> 100 µM	> 100 µM	> 100 µM
O=c1[nH]c2ccsc2c(=O)n1COCc1ccccc1	> 100 µM	> 100 µM	> 100 µM	> 100 µM	> 100 µM	> 100 µM	> 100 µM	> 100 µM		> 100 µM

SMILES	TGI (HL-60(TB) leukemia)	TGI (HOP-62 NSCLC)	TGI (HOP-92 NSCLC)	TGI (MDA-N)	TGI (PC-3 prostate)	TGI (SN12C renal)	TGI (SW-620 colon)	TGI (TK-10 renal)	TGI (UACC-62 melanoma)	TGI (SK-MEL-2 melanoma)
CC1=[N+]([O-])C(C)(C)N(O)C1(C)C	> 100 µM	> 100 µM	> 100 µM	> 100 µM	> 100 µM	> 100 µM	> 100 µM	> 100 µM	> 100 µM	> 100 µM
CC1(C)N=C(N)N=C(N)N1c1cccc(OCc2cccc([N+](=O)[O-])c2)c1	58.2 µM	> 100 µM	> 100 µM	> 100 µM	> 82.7 µM	> 100 µM	> 100 µM	> 81.8 µM	> 100 µM	> 100 µM
C=C1CC(COc2ccc3ccc(=O)oc3c2)(c2ccccc2)OC1=O (configuration not stated)	0.708 µM	26.9 µM	2.15 µM	3.85 µM	7.58 µM	8.23 µM	1.94 µM	2.99 µM	2.92 µM	4.18 µM
O=C1CCSc2c(cnc3ccccc23)N1	> 100 µM	> 100 µM	> 100 µM	> 100 µM	> 100 µM	> 100 µM	> 100 µM	> 100 µM	> 100 µM	> 100 µM
COC(=O)/C(C#N)=C(\Nc1ccccc1)N1CCCCC1	> 100 µM	> 100 µM	> 100 µM	> 100 µM	> 100 µM	> 100 µM	> 100 µM	> 100 µM		> 100 µM
NC(=O)NC(=O)c1ccc(NC(=O)CBr)cc1	3.27 µM	4.81 µM	4.59 µM	5 µM	4.39 µM	1.18 µM	1.74 µM	2.68 µM	4.03 µM	4.61 µM
COc1cc(/C=N/NC2=NCCCN2)ccc1O	> 100 µM	> 100 µM	> 100 µM	> 100 µM	> 100 µM	> 100 µM	> 100 µM	> 100 µM	> 100 µM	> 100 µM
CC(C)=CCC[C@@H](C)C1=C(Nc2ccccc2)C(O)=C(C)C(=O)C1=O	1.35 µM	15.6 µM	9.9 µM	54.2 µM	> 40.5 µM	41.6 µM	> 48 µM	> 55.1 µM	20.7 µM	19.8 µM
CNC(=S)NNC1=NCCCCN1	> 100 µM	> 100 µM	> 100 µM	> 100 µM	> 100 µM		> 100 µM	> 100 µM	> 100 µM	> 100 µM
CCCCCNC1=CC(=O)c2ccccc2C1=O	> 62.6 µM	43.5 µM	59.1 µM	> 100 µM	> 100 µM	> 100 µM	> 100 µM	52.3 µM	> 100 µM	53.6 µM
C#C[C@]1(O)CC[C@H]2[C@@H]3CCC4=C/C(=N\OCCN5CCCC5)CC[C@]4(C)[C@H]3CC[C@@]21C	8.57 µM	26.7 µM	> 100 µM	11.3 µM	32.6 µM	43.7 µM	> 49.5 µM	38.3 µM	27.5 µM	24.4 µM
O=C1c2cccnc2C(=O)c2c1nc1ccccc1c2-c1cncc(-c2c3c(nc4ccccc24)C(=O)c2cccnc2C3=O)c1	0.478 µM		5.93 µM	0.778 µM	11 µM	0.613 µM	0.906 µM	2.86 µM	1.09 µM	4.1 µM
O=Cc1ccc2c(c1)CC1(C2)Cc2ccc(C=O)cc2C1	5.72 µM	37.2 µM	53.2 µM	5.99 µM	43.3 µM	64.5 µM	39.2 µM	65 µM	23.8 µM	30.8 µM
COc1cc(C2S/C(=C/c3ccccc3)C(=O)N2c2ccc([N+](=O)[O-])cc2)cc(OC)c1OC (configuration not stated)	> 100 µM	> 100 µM	> 100 µM	> 100 µM	> 100 µM	> 100 µM	> 100 µM	> 100 µM	> 100 µM	> 100 µM
CC1=CCC[C@]2(C)C1=CC(=O)O[C@H]2c1ccoc1	> 100 µM	> 100 µM	> 100 µM	> 100 µM	> 100 µM	> 100 µM	> 100 µM	> 100 µM	> 100 µM	> 100 µM
COc1ccc(CCN(C)C(=O)CC(C#N)(c2ccccc2)c2ccc(OC)c(OC)c2)cc1OC (configuration not stated)	> 100 µM	> 100 µM	> 76 µM	> 100 µM	> 100 µM	> 100 µM	> 100 µM	> 100 µM	> 100 µM	> 100 µM
CC(C)(CCCCC(C)(C)NCC1COc2ccccc2O1)NCC1COc2ccccc2O1 (configuration not stated)	> 10 µM	> 10 µM	7.43 µM	5.66 µM	> 10 µM	> 10 µM	> 10 µM	> 10 µM	9.93 µM	6.68 µM
O=c1[nH]n(Cc2ccccc2CCl)c2ccc([N+](=O)[O-])cc12	99.6 µM	> 100 µM	> 100 µM	> 100 µM	> 100 µM	> 100 µM	> 100 µM	> 100 µM	> 100 µM	> 100 µM
CC(C)C(Cl)CC/C(CBr)=C(\Cl)CCl (configuration not stated)	2.24 µM	31.1 µM	7.73 µM	5.63 µM	23.9 µM	10.2 µM	4.26 µM	28 µM	6.16 µM	5.64 µM
Nc1c(Cl)c([N+](=O)[O-])cc2c1OCCCCO2	> 100 µM	> 100 µM	> 100 µM	> 100 µM	> 100 µM	> 100 µM	> 100 µM	> 100 µM	> 100 µM	> 100 µM
CCCCc1ccc(N2C(=O)c3cccnc3S2(=O)=O)cc1	> 100 µM	> 100 µM	> 100 µM	> 100 µM	> 100 µM	> 100 µM	> 100 µM		> 100 µM	> 100 µM
